Legend:
mP2X7 = mP2X7 (Mus musculus (Mouse), UniProt Q9Z1M0); assay: mP2X7 channel calcium-influx assay (Fluo-8 NW, FLIPR TETRA, Bz-ATP stimulation); format: cell-based
Description: (§1) Extracellular binding of Bz-ATP to P2X7 receptor opens the channel and allows Ca^2+ influx into the cells. This Ca^2+ entry was measured in HEK-293 cells stably transfected with P2X7 receptor using Screen Quest™ Fluo-8 No Wash Calcium Assay Kit (AAt Bioquest®, cat. 36316). Once inside the cell, the lipophilic blocking groups of Fluo-8 are cleaved by non-specific cell esterases, resulting in a negatively-charged fluorescent dye that stays inside cells. Its fluorescence increases upon binding to calcium. When HEK-293/P2X7 cells are stimulated with Bz-ATP, Ca^2+ enters the cells and the fluorescence of Fluo-8 NW increases.
(§2) HEK-293 cells stably transfected with P2X7 receptor were seeded overnight in growth medium at 10,000 to 20,000 cells/well in 384-well plate. 24 hours later, the medium was removed, and the cells were pre-loaded at RT for 1 hour with 20 μL/w of Fluo-8 NW. Then 10 μL/w of test compounds and reference antagonist A438079 at 3X-concentration were injected with the […] and the kinetic response over a period of five minutes was monitored.

P2X7 receptor = P2X7 receptor (Homo sapiens (Human), UniProt Q99572); assay: Human P2X7 channel calcium-influx assay (Fluo-8 NW, FLIPR TETRA, Bz-ATP stimulation); format: cell-based; conditions: HEK-293 cells stably transfected with P2X7 receptor, Low Divalent Cation Assay Buffer, read-out: hP2X7 IC50
Description: as §1, §2

P2X7 receptor, sequence (Q99572 whole entry): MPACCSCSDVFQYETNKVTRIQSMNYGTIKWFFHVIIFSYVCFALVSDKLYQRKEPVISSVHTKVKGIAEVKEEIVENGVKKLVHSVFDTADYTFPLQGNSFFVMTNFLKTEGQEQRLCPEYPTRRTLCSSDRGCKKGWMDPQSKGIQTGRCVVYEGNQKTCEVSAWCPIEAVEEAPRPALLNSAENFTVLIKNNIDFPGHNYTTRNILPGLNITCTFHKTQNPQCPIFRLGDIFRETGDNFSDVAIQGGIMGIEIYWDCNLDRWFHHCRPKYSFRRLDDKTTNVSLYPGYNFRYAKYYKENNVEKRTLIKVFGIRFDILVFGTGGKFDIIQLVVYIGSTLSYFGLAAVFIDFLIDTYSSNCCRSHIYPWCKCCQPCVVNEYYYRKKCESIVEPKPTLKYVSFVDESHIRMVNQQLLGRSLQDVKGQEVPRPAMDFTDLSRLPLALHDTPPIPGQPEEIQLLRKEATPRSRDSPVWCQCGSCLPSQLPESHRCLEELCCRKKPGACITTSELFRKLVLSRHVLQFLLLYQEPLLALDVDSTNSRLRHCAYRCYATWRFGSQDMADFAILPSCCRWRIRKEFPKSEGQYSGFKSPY
mP2X7, sequence (Q9Z1M0 whole entry): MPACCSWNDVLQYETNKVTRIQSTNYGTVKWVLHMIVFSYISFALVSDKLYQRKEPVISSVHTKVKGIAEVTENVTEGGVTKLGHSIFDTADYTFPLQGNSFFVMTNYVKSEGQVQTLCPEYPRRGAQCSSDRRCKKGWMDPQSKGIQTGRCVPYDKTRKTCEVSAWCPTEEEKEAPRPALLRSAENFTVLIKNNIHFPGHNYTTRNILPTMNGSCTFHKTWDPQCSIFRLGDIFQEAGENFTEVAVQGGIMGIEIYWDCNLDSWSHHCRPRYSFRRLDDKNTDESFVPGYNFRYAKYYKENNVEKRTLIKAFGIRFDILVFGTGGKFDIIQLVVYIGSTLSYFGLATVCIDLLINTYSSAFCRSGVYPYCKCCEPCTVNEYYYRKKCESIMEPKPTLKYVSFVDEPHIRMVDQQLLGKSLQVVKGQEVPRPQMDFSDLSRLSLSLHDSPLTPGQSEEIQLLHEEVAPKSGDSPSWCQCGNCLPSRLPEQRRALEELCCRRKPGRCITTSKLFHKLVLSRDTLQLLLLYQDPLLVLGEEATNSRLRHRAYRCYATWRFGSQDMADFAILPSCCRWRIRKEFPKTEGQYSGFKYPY

IC50 (mP2X7) [nM] | IC50 (P2X7 receptor) [nM] | SMILES
53.5 | 21.7 | O=C(NCC(c1scnc1C(F)F)N1CCC(Oc2ccccn2)CC1)c1c(F)cccc1Cl (stereo not drawn) [Example 1, 2-chloro-N-{2-[4-(difluoromethyl)-1,3-thiazol-5-yl]-2-[4-(pyridin-2-yloxy)piperidin-1-yl]ethyl}-6-fluorobenzamide]
408 | 58.2 | O=C(NCC(c1scnc1C(F)F)N1CCC(Oc2ncccn2)CC1)c1c(F)cccc1Cl (stereo not drawn) [Example 4, 2-chloro-N-{2-[4-(difluoromethyl)-1,3-thiazol-5-yl]-2-[4-(pyrimidin-2-yloxy)piperidin-1-yl]ethyl}-6-fluorobenzamide]
69.7 | 49.9 | O=C(NCC(c1scnc1C(F)F)N1CCC(Oc2ccncc2F)CC1)c1c(F)cccc1Cl (stereo not drawn) [Example 6, 2-chloro-N-{2-[4-(difluoromethyl)-1,3-thiazol-5-yl]-2-{4-[(3-fluoropyridin-4-yl)oxy]piperidin-1-yl}ethyl}-6-fluorobenzamide]
191 | 23.5 | O=C(NCC(c1scnc1C(F)F)N1CCC(Oc2nccs2)CC1)c1c(F)cccc1Cl (stereo not drawn) [Example 10, 2-chloro-N-{2-[4-(difluoromethyl)-1,3-thiazol-5-yl]-2-[4-(1,3-thiazol-2-yloxy)piperidin-1-yl]ethyl}-6-fluorobenzamide]
43.9 | 11.8 | O=C(NCC(c1scnc1C(F)F)N1CCC(Oc2nc(Cl)cs2)CC1)c1c(F)cccc1Cl (stereo not drawn) [Example 12, 2-Chloro-N-(2-{4-[(4-chloro-1,3-thiazol-2-yl)oxy]piperidin-1-yl}-2-[4-(difluoromethyl)-1,3-thiazol-5-yl]ethyl)-6-fluorobenzamide]
68.3 | 56.9 | N#Cc1cncc(OC2CCN(C(CNC(=O)c3c(F)cccc3Cl)c3scnc3C(F)F)CC2)c1 (stereo not drawn) [Example 16, 2-Chloro-N-(2-{4-[(5-cyanopyridin-3-yl)oxy]piperidin-1-yl}-2-[4-(difluoromethyl)-1,3-thiazol-5-yl]ethyl)-6-fluorobenzamide]
320 | 55 | N#Cc1nccnc1OC1CCN(C(CNC(=O)c2c(F)cccc2Cl)c2scnc2C(F)F)CC1 (stereo not drawn) [Example 17, 2-Chloro-N-(2-{4-[(3-cyanopyrazin-2-yl)oxy]piperidin-1-yl}-2-[4-(difluoromethyl)-1,3-thiazol-5-yl]ethyl)-6-fluorobenzamide]
186 | 41.1 | N#Cc1ncccc1OC1CCN(C(CNC(=O)c2c(F)cccc2Cl)c2scnc2C(F)F)CC1 (stereo not drawn) [Example 18, 2-Chloro-N-(2-{4-[(2-cyanopyridin-3-yl)oxy]piperidin-1-yl}-2-[4-(difluoromethyl)-1,3-thiazol-5-yl]ethyl)-6-fluorobenzamide]
14 | 17.5 | O=C(NCC(c1scnc1C(F)F)N1CCC(Oc2nc3ccccc3s2)CC1)c1c(F)cccc1Cl (stereo not drawn) [Example 20, N-{2-[4-(1,3-Benzothiazol-2-yloxy)piperidin-1-yl]-2-[4-(difluoromethyl)-1,3-thiazol-5-yl]ethyl}-2-chloro-6-fluorobenzamide]
12.3 | 20.5 | O=C(NCC(c1scnc1C(F)F)N1CCC(Oc2nc3ccccc3o2)CC1)c1c(F)cccc1Cl (stereo not drawn) [Example 22, N-{2-[4-(1,3-Benzoxazol-2-yloxy)piperidin-1-yl]-2-[4-(difluoromethyl)-1,3-thiazol-5-yl]ethyl}-2-chloro-6-fluorobenzamide]
183 | 73.6 | COCCc1nsc(OC2CCN(C(CNC(=O)c3c(F)cccc3Cl)c3scnc3C(F)F)CC2)n1 (stereo not drawn) [Example 23, 2-Chloro-N-{2-[4-(difluoromethyl)-1,3-thiazol-5-yl]-2-(4-{[3-(2-methoxyethyl)-1,2,4-thiadiazol-5-yl]oxy}piperidin-1-yl)ethyl}-6-fluorobenzamide]
32.4 | 98.1 | O=C(NCC(c1scnc1C(F)F)N1CCC(Oc2nc(-c3ccccc3)no2)CC1)c1c(F)cccc1Cl (stereo not drawn) [Example 24, 2-Chloro-N-{2-[4-(difluoromethyl)-1,3-thiazol-5-yl]-2-{4-[(3-phenyl-1,2,4-oxadiazol-5-yl)oxy]piperidin-1-yl}ethyl}-6-fluorobenzamide]
45.8 | 57.7 | O=C(NCC(c1scnc1C(F)F)N1CCC(Oc2nnnn2-c2ccccc2)CC1)c1c(F)cccc1Cl (stereo not drawn) [Example 25, 2-Chloro-N-{2-[4-(difluoromethyl)-1,3-thiazol-5-yl]-2-{4-[(1-phenyl-1H-1,2,3,4-tetrazol-5-yl)oxy]piperidin-1-yl}ethyl}-6-fluorobenzamide]
206 | 64.4 | Cc1cnc(OC2CCN(C(CNC(=O)c3c(F)cccc3Cl)c3scnc3C(F)F)CC2)nc1 (stereo not drawn) [Example 28, 2-Chloro-N-{2-[4-(difluoromethyl)-1,3-thiazol-5-yl]-2-{4-[(5-methylpyrimidin-2-yl)oxy]piperidin-1-yl}ethyl}-6-fluorobenzamide]
87.6 | 31.7 | Cc1ccc(OC2CCN(C(CNC(=O)c3c(F)cccc3Cl)c3scnc3C(F)F)CC2)nn1 (stereo not drawn) [Example 29, 2-Chloro-N-{2-[4-(difluoromethyl)-1,3-thiazol-5-yl]-2-{4-[(6-methylpyridazin-3-yl)oxy]piperidin-1-yl}ethyl}-6-fluorobenzamide]
24 | 17.3 | O=C(NCC(c1scnc1C(F)F)N1CCC(Oc2ccc(F)cn2)CC1)c1c(F)cccc1Cl (stereo not drawn) [Example 30, 2-Chloro-N-{2-[4-(difluoromethyl)-1,3-thiazol-5-yl]-2-{4-[(5-fluoropyridin-2-yl)oxy]piperidin-1-yl}ethyl}-6-fluorobenzamide]
136 | 61.2 | O=C(NCC(c1scnc1C(F)F)N1CCC(Oc2cc(F)ncn2)CC1)c1c(F)cccc1Cl (stereo not drawn) [Example 31, 2-Chloro-N-{2-[4-(difluoromethyl)-1,3-thiazol-5-yl]-2-{4-[(6-fluoropyrimidin-4-yl)oxy]piperidin-1-yl}ethyl}-6-fluorobenzamide]
52.5 | 39.9 | O=C(NCC(c1scnc1C(F)F)N1CCC(Oc2cncc(F)n2)CC1)c1c(F)cccc1Cl (stereo not drawn) [Example 33, 2-Chloro-N-{2-[4-(difluoromethyl)-1,3-thiazol-5-yl]-2-{4-[(6-fluoropyrazin-2-yl)oxy]piperidin-1-yl}ethyl}-6-fluorobenzamide]
174 | 55.5 | O=C(NCC(c1scnc1C(F)F)N1CCC(Oc2nccnc2F)CC1)c1c(F)cccc1Cl (stereo not drawn) [Example 34, 2-Chloro-N-{2-[4-(difluoromethyl)-1,3-thiazol-5-yl]-2-{4-[(3-fluoropyrazin-2-yl)oxy]piperidin-1-yl}ethyl}-6-fluorobenzamide]
190 | 71.1 | O=C(NCC(c1scnc1C(F)F)N1CCC(Oc2ccnc(F)n2)CC1)c1c(F)cccc1Cl (stereo not drawn) [Example 35, 2-Chloro-N-{2-[4-(difluoromethyl)-1,3-thiazol-5-yl]-2-{4-[(2-fluoropyrimidin-4-yl)oxy]piperidin-1-yl}ethyl}-6-fluorobenzamide]
126 | 53.8 | N#Cc1cccnc1OC1CCN(C(CNC(=O)c2c(F)cccc2Cl)c2scnc2C(F)F)CC1 (stereo not drawn) [Example 36, 2-Chloro-N-(2-{4-[(3-cyanopyridin-2-yl)oxy]piperidin-1-yl}-2-[4-(difluoromethyl)-1,3-thiazol-5-yl]ethyl)-6-fluorobenzamide]
28.5 | 28 | N#Cc1cccc(OC2CCN(C(CNC(=O)c3c(F)cccc3Cl)c3scnc3C(F)F)CC2)n1 (stereo not drawn) [Example 37, 2-Chloro-N-(2-{4-[(6-cyanopyridin-2-yl)oxy]piperidin-1-yl}-2-[4-(difluoromethyl)-1,3-thiazol-5-yl]ethyl)-6-fluorobenzamide]
79.6 | 57.5 | N#Cc1ccncc1OC1CCN(C(CNC(=O)c2c(F)cccc2Cl)c2scnc2C(F)F)CC1 (stereo not drawn) [Example 38, 2-Chloro-N-(2-{4-[(4-cyanopyridin-3-yl)oxy]piperidin-1-yl}-2-[4-(difluoromethyl)-1,3-thiazol-5-yl]ethyl)-6-fluorobenzamide]
44.6 | 51.1 | Cc1nc(F)cc(OC2CCN(C(CNC(=O)c3c(F)cccc3Cl)c3scnc3C(F)F)CC2)n1 (stereo not drawn) [Example 39, 2-Chloro-N-{2-[4-(difluoromethyl)-1,3-thiazol-5-yl]-2-{4-[(6-fluoro-2-methylpyrimidin-4-yl)oxy]piperidin-1-yl}ethyl}-6-fluorobenzamide]
50.6 | 32.7 | Cc1c(F)ncnc1OC1CCN(C(CNC(=O)c2c(F)cccc2Cl)c2scnc2C(F)F)CC1 (stereo not drawn) [Example 40, 2-Chloro-N-{2-[4-(difluoromethyl)-1,3-thiazol-5-yl]-2-{4-[(6-fluoro-5-methylpyrimidin-4-yl)oxy]piperidin-1-yl}ethyl}-6-fluorobenzamide]
108 | 60.8 | O=C(NCC(c1scnc1C(F)F)N1CCC(Oc2nccc(C(F)(F)F)n2)CC1)c1c(F)cccc1Cl (stereo not drawn) [Example 42, 2-Chloro-N-{2-[4-(difluoromethyl)-1,3-thiazol-5-yl]-2-(4-{[4-(trifluoromethyl)pyrimidin-2-yl]oxy}piperidin-1-yl)ethyl}-6-fluorobenzamide]
63.9 | 69.2 | O=C(NCC(c1scnc1C(F)F)N1CCC(Oc2cc(C(F)(F)F)ncn2)CC1)c1c(F)cccc1Cl (stereo not drawn) [Example 43, 2-Chloro-N-{2-[4-(difluoromethyl)-1,3-thiazol-5-yl]-2-(4-{[6-(trifluoromethyl)pyrimidin-4-yl]oxy}piperidin-1-yl)ethyl}-6-fluorobenzamide]

From US20240034737A1, “Heterocyclic Derivatives as P2X7 Receptor Antagonists” (BREYE THERAPEUTICS APS, priority 2020, published 2024)
